In patent publication US20120225093A1, “Abrogating HIV-1 Infection via Drug-Induced Reactivation of Apoptosis” (UNIVERSITY OF MEDICINE AND DENTISTRY OF NEW JERSEY, priority 2010, published 2012):

Legend:
[1] = tested on: CMV immediate early promoter; experiment: CMV promoter-driven luciferase (pCMV-Ren, pCMV-FF) in 293T cells; type: cell-based, cytomegalovirus; details: for CMV-driven Renilla luciferase expression: pCMV-Ren
Procedure: Plasmids were introduced into 2×10^5 293T cells by transfection using Lipofectamine 2000 (Invitrogen) according to the manufacturer's instructions. Compounds (such as CPX or DEF) were added simultaneously. Cells were harvested at 12 hr post-transfection, washed with PBS, lysed in 0.15 ml of 1× passive lysis buffer (Promega), and assayed for luciferase activity using the Promega dual luciferase reporter system according to the manufacturer's instructions. Jurkat cells (1×10^6 cells) were transfected using FuGENE 6 (Roche) according to the manufacturer's instructions and assayed in a similar fashion after pelleting.
293T cells were selected as a model system to explore the relationship between the drugs, eIF5A and HIV gene expression. These cells efficiently transcribe HIV-1 genes from molecular clones as well as subviral constructs, allowing for early detection of changes in HIV gene expression. To establish the system, assays were carried out to examine the effect of CPX and DEF on the expression of firefly luciferase (FF) from the HIV-1 molecular clone, pNL4-3-LucE-, engineered to carry the FF gene in place of the viral nef gene. The molecular clone was transfected into 293T cells together with the pCMV-Ren vector that expresses Renilla luciferase (Ren) from the cytomegalovirus (CMV) immediate early promoter as a control for transfection efficiency and non-specific effects of the compounds. Dual luciferase assays were conducted at 12 hr post-transfection and results are expressed as relative luciferase activity (FF:Ren). […] Assays therefore were carried out to characterize the action of CPX and DEF on eIF5A and HIV gene expression in 293T cells during the first 12 to 24 hr of drug treatment.

H9-HIV cells [2] = experiment: Apoptosis in H9-HIV cells: annexin V binding, cell diameter, cell survival; type: cell-based; details: CPX 30 μM, DEF 200 μM; for increase in annexin-V binding, 7-AAD-negative cell population: by 24 hr
Procedure: Uninfected and uniformly HIV-1 (HTLV-IIIB) infected H9 cells, obtained from the NIH AIDS Research and References Reagent Program, were cultured at 37° C. in a humidified atmosphere (5% CO2, 95% humidity) using RPMI 1640 medium supplemented with 2 mM L-glutamine, […], […] and 20% fetal calf serum.
Viability, diameter, and cell number of PBMCs and H9 cells were measured by computerized image analysis of trypan blue exclusion (VI-CELL™; Beckman Coulter; Fullerton, Calif.). PBMCs were counted with an automated, multi-parameter hematology analyzer (CELL-DYN™; Abbott Laboratories, Abbott Park, Ill.).
(§1) The potential across the mitochondrial membrane of live cells was determined flow-cytometrically with the lipophilic cationic fluorochrome JC-1 (5,5′,6,6′-tetrachloro-1,1′,3,3′-tetraethylbenzimidazolcarbocyanine iodide) immediately after sample harvest (BD™ Mitoscreen Kit, BD Biosciences; San Diego, Calif.). DNA fragmentation was quantified flow-cytometrically, using a TUNEL (terminal deoxynucleotide transferase dUTP nick end-labeling) assay (APO-BRDU™; Phoenix Flow Systems; San Diego, Calif.) and a dual-color assay for annexin V binding and 7-AAD exclusion (Annexin V-PE 7-AAD Apoptosis Detection Kit I™; BD Biosciences Pharmingen, San Jose, Calif.). The apoptotic volume decrease of cells was assessed by the reduction of their diameter (VI-CELL™; Beckman Coulter; Fullerton, Calif.).
First, whether both drugs elicit apoptosis in H9-HIV cells was determined. The cells were exposed to CPX or DEF, and annexin-V binding, cell diameter and cell survival were assayed in a time-dependent manner. By 24 hr, drug treatment elicited a ˜5-fold increase in the percentage of the 7-AAD-negative cell population capable of binding annexin-V to exposed membrane phospholipid phosphatidylserine, with little further increase at 48 hr (FIG. 8A). Both drugs elicited a decrease in mean cell diameter of ˜15% within 24 hr and ˜30% within 48 hr, indicating volume constriction characteristic of apoptosis but not necrosis (FIG. 8B). Concomitantly, cell survival decreased ˜2 fold at 24 hr and ˜5 fold at 48 hr (FIG. 8C).

HIV p24 = experiment: p24 expression from pNL4-3-LucE- molecular clone in 293T cells; type: cell-based, HIV-1; details: 293T cell extract; 12 hr post-transfection
Procedure: FIGS. 3A-D are a set of diagrams and photographs showing drug effects on luciferase expression from an HIV-1 molecular clone. A. Comparison of drug effects on luciferase expression from the pNL4-3-LucE- molecular clone in 293T cells. The molecular clone pNL4-3-LucE- and pCMV-Ren were transfected into 293T cells. Drugs were added where indicated at the following concentrations: P2 (30 μM), CPX (30 μM), DEF (250 μM), or DFOX (15 μM). Dual luciferase assays were conducted at 12 hr post-transfection. Firefly (FF) luciferase expression was normalized to Renilla luciferase (Ren) from pCMV-Ren (mean of 2 experiments in duplicate, ±SD). B. Expression in Jurkat cells was assayed essentially as in panel A. C. Firefly and Renilla luciferase RNA expression was analyzed in 293T cells treated as in panel A by RPA using 32P-[UTP] labeled antisense RNA probes corresponding to the C-termini of the FF and Ren luciferase mRNAs. D. Comparison of drug effects on p24 expression from the pNL4-3-LucE- molecular clone in 293T cells. Drugs were added where indicated to the same concentrations as in A. p24 levels were determined in cell extract at 12 hr post-transfection.
p24 core antigen in the supernatant was quantified by ELISA (Retrotek HIV-1 p24™; ZeptoMetrix Corp.; Buffalo, N.Y.). HIV-1 RNA copy number in the supernatant was determined with a PCR-based and FDA-approved assay (Amplicor HIV-1 Monitor™; Roche Diagnostics Corp.; Indianapolis, Ind.). IFN-γ and IL-10 in the supernatant were determined by cytometric bead array (Human Th1/Th2 Cytokine Kit II™; BD Biosciences Pharmingen, San Jose, Calif.).

H9-HIV cells [3] = experiment: TUNEL DNA fragmentation in H9-HIV cells; type: cell-based; details: 24 hr; between 10 and 20 μM CPX, leveled off at 40 μM
Procedure: as §1
The relationship between iron chelation and apoptosis was assessed using the TUNEL assay to measure DNA fragmentation. DEF induces this late apoptotic event in HIV-expressing ACH-2 cells. Similarly, CPX triggered DNA fragmentation in H9-HIV cells in a dose-dependent manner with a steep, almost 10-fold increase in TUNEL-positive cells between 10 and 20 μM CPX that leveled off at 40 μM (FIG. 11C). […]

Compound	expression from pCMV-FF (construct I) [1]	CMV-driven Renilla luciferase expression [1]	decrease in cell survival (H9-HIV cells [2]; at 24 hr)	decrease in cell survival (H9-HIV cells [2]; at 48 hr)	increase in annexin-V binding, 7-AAD-negative cell population (H9-HIV cells [2])	decrease in mean cell diameter (H9-HIV cells [2]; within 24 hr)	decrease in mean cell diameter (H9-HIV cells [2]; within 48 hr)	inhibition of HIV p24 expression from the molecular clone (HIV p24)	increase in TUNEL-positive cells (H9-HIV cells [3])
Cc1c(O)c(=O)ccn1C [DEF, 3-hydroxy-1,2-dimethylpyridin-4(1H)-one]	unaffected	no effect on CMV-driven Renilla luciferase expression	~2 fold	~5 fold	~5 fold	~15%	~30%	~60%	
Cc1cc(C2CCCCC2)n(O)c(=O)c1 [CPX, 6-cyclohexyl-1-hydroxy-4-methylpyridin-2[1H]-one]	unaffected	no effect on CMV-driven Renilla luciferase expression	~2 fold	~5 fold	~5 fold	~15%	~30%	~60%	~10 fold
